Legend:
Assay in all cases: Test A pre-/postemergence herbicide test
barnyardgrass = type: in vivo, Echinochloa crus-galli
Method in brief: (§1)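 Sandy loam soil given preemergence directed spray; plants at 2 to 10 cm, one- to two-leaf stage, sprayed to runoff postemergence, compounds in non-phytotoxic solvent with surfactant. Injury rated visually versus untreated controls after about ten greenhouse days, 0 (no effect) to 100 (complete control); dash means not tested.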

large crabgrass = type: in vivo, Digitaria sanguinalis
Method in brief: as §1

redroot pigweed = type: in vivo, Amaranthus retroflexus
Method in brief: as §1

[1] = Postemergence, 500 g ai/ha, 0 to 100 scale, 0 no effect, 100 complete control
[2] = Postemergence, 2000 g ai/ha, 0 to 100 scale, 0 no effect, 100 complete control
[3] = Preemergence, 500 g ai/ha, visual rating, 0 to 100 scale (0 no effect, 100 complete control)
[4] = Preemergence, 2000 g ai/ha, 0 to 100 scale, 0 no effect, 100 complete control
[5] = Postemergence, 125 g ai/ha, 0 to 100 scale, 0 no effect, 100 complete control
[6] = preemergence, 125 g ai/ha, visual injury, 0 to 100 scale (0 no effect, 100 complete control)
[7] = Preemergence, 2000 g ai/ha, visual rating, 0 to 100 scale (0 no effect, 100 complete control)
[8] = preemergence, 500 g ai/ha, visual injury, 0 to 100 scale (0 no effect, 100 complete control)

Row | Compound | Plant response rating, Barnyardgrass (barnyardgrass; [2]) | Barnyardgrass plant response rating (barnyardgrass; [3]) | Plant response rating, Crabgrass, Large (large crabgrass; [2]) | Crabgrass, Large plant response rating (large crabgrass; [3]) | Plant response rating, Pigweed (redroot pigweed; [2]) | Barnyardgrass plant response rating (barnyardgrass; [1]) | Barnyardgrass plant response rating (barnyardgrass; [7]) | Crabgrass, Large plant response rating (large crabgrass; [1]) | Crabgrass, Large plant response rating (large crabgrass; [7]) | Pigweed plant response rating (redroot pigweed; [1]) | Pigweed plant response rating (redroot pigweed; [7]) | Pigweed plant response rating (redroot pigweed; [8]) | Barnyardgrass plant response rating (barnyardgrass; [8]) | Crabgrass, Large plant response rating (large crabgrass; [8]) | other results
1 | CCn1nc(C(C)(C)C)cc1C(=O)Nc1cccc(C(=O)NCCF)c1 [Compound 45] | 100 | 80 | 90 | 55 | 100 | – | – | – | – | – | – | – | – | – | Plant response rating, Barnyardgrass (barnyardgrass; [1]): 100; Barnyardgrass plant response rating (barnyardgrass; [4]): 95; Plant response rating, Crabgrass, Large (large crabgrass; [1]): 80; Crabgrass, Large plant response rating (large crabgrass; [4]): 75; Plant response rating, Pigweed (redroot pigweed; [1]): 100; Pigweed plant response rating (redroot pigweed; [3]): 95; Pigweed plant response rating (redroot pigweed; [4]): 100
2 | CCn1nc(C(C)(C)C)cc1C(=O)Nc1cccc(C(=O)NC(C)C)c1 [Compound 51] | – | 85 | – | 80 | – | – | – | – | – | – | – | – | – | – | Barnyardgrass plant response rating (barnyardgrass; [5]): 50; Plant response rating, Barnyardgrass (barnyardgrass; [1]): 75; Barnyardgrass plant response rating (barnyardgrass; [6]): 60; Crabgrass, Large plant response rating (large crabgrass; [5]): 30; Plant response rating, Crabgrass, Large (large crabgrass; [1]): 30; Crabgrass, Large plant response rating (large crabgrass; [6]): 80; Pigweed plant response rating (redroot pigweed; [5]): 50; Plant response rating, Pigweed (redroot pigweed; [1]): 85; Pigweed plant response rating (redroot pigweed; [3]): 100; Pigweed plant response rating (redroot pigweed; [6]): 100
3 | CCn1nc(C(C)(C)C)cc1C(=O)Nc1cccc(C(C)=O)c1 [Compound 122] | 85 | 90 | 65 | 70 | 100 | 75 | 95 | 35 | 95 | 60 | 90 | 85 | – | – | –
4 | CCOc1cccc(NC(=O)c2cc(C(C)(C)C)nn2CC)c1 [Compound 136] | 60 | 65 | 70 | 85 | 85 | 55 | 85 | 35 | 90 | 65 | 80 | 70 | – | – | –
5 | CCn1nc(C(C)(C)C)cc1C(=O)Nc1cccc(OCCCF)c1 [Compound 138] | 30 | 30 | 30 | 70 | 100 | 15 | 80 | 20 | 90 | 60 | 95 | 80 | – | – | –
6 | CCc1nc(C(C)(C)C)sc1C(=O)Nc1cccc(C(=O)NCCF)c1 [Compound 209] | 70 | – | 40 | – | 50 | 30 | 80 | 20 | 95 | 40 | 100 | 75 | 60 | 75 | –
7 | CCc1nc(C(C)(C)C)sc1C(=O)Nc1cccc(C(=O)NC(C)(C)C)n1 [Compound 216] | 15 | – | 20 | – | 55 | 0 | 35 | 20 | 55 | 30 | 70 | 0 | 15 | 15 | –
8 | CCNC(=O)c1ccc(F)c(NC(=O)c2cc(C(C)(C)C)nn2CC)n1 [Compound 278] | 60 | – | 5 | – | 70 | 30 | 80 | 10 | 60 | 60 | 95 | 85 | 50 | 25 | –
9 | CCn1nc(C(C)(C)C)cc1C(=O)Nc1nc(C(=O)N2CC=CC2)ccc1F [Compound 281] | 65 | – | 10 | – | 70 | 30 | 75 | 5 | 65 | 70 | 95 | 90 | 60 | 20 | –
10 | C#CCNC(=O)c1cc(NC(=O)c2cc(C(C)(C)C)nn2CC)ccn1 [Compound 283] | 35 | – | 10 | – | 100 | 10 | 30 | 10 | 90 | 80 | 90 | 60 | 0 | 15 | –
11 | CCn1nc(C(C)(C)C)cc1C(=O)Nc1cncc(C(=O)N2CC=CC2)n1 [Compound 290] | 70 | – | 10 | – | 60 | 55 | 90 | 10 | 25 | 30 | 95 | 10 | 40 | 5 | –
12 | C#CCNC(=O)c1cccc(NC(=O)c2sc(C(C)(C)C)nc2CC)c1 [Compound 319] | 60 | – | 50 | – | 40 | 10 | 80 | 10 | 100 | 40 | 100 | 100 | 55 | 85 | –
13 | CCN(C(C)=O)C(=O)c1ccc(F)c(NC(=O)c2cc(C(C)(C)C)nn2CC)c1 [Compound 413] | 50 | – | 15 | – | 85 | 20 | 75 | 10 | 70 | 60 | 60 | 45 | 60 | 40 | –

— patent US20060069132A1, “Azolecarboxamide herbicides” (priority 2004, published 2006)
